We go through one compound from patent US20220249687A1, “BIS(2-HALOACETAMIDO)-COMPOUNDS FOR USE AS LINKING AGENTS AND RESULTANT PRODUCTS WHICH COMPRISE ANTIBODIES, HALF-ANTIBODIES AND ANTIBODY FRAGMENTS” (THE UNIVERSITY OF BATH, priority 2019, published 2022).

This assay in a line: Reactivity of linker compounds with glutathione. Particulars: pH=7, RT. On the procedure:
Relative reactivities of the compounds were evaluated towards the small thiol containing peptide glutathione (pH=7, RT). […] Without wishing to be bound by any particular theory, the inventors speculate that the difference in reactivity and stability of the ortho and meta compounds may be attributed to differences in the 3D structures of each compound. Methyl 3,5-bis(2-chloroacetamido)benzoate (1) is predicted to have a planar conformation. Thus, steric hindrance could slow the backside attack of thiolate at the carbon attached to halogen (through an SN2 mechanism). This might explain the greater reactivity of ortho compounds like methyl 3,4-bis(2-chloroacetamido)benzoate (4). Compound (4) is not planar and might afford a more accessible carbon for backside attack.
The reactivity of the linker compounds of the present invention was tested by reaction with glutathione. The following representative reactions are described. Analogous reactions were performed with amide functionalised linker compounds.
The inventors compared the reactivity of various linker compounds of the invention by determining the percentage remaining of the bis-haloacetamide derivatives 14-17 in the presence of glutathione (2.2 equiv.) in aqueous phosphate buffer (100 mM, pH 7.5).

`COC(=O)c1ccc(NC(=O)CCl)c(NC(=O)CCl)c1` [Compound 4, methyl 3,4-bis(2-chloroacetamido)benzoate]: the “relative reactivity towards glutathione (reaction rate)” value is “react significantly faster than the 3,5-bis-Cl compound (1)”.
